Data as given in the supplement of paper PMC11061612.

Legend:
[1] = compound: C=CCn1c(=O)c2cnc(Nc3ccc(N4CCN(C)CC4)cc3)nc2n1-c1cccc(C(C)(C)O)n1 [AZD1775]; settings: max 3 µM
Method in brief: (§1)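 Viability was measured with CellTiter-Glo 2.0 luminescence after 72 hours of dosing at a final DMSO of typically 0.2%, and scaled between blank-well and DMSO-well means. Beforehand, cancer cell lines sat 24 hours at 37°C and 5% CO2 in 1536-well plates in 7.5 μl DMEM/F12 or RPMI with 10% FBS. A non-linear mixed effects model fitted two-parameter logistic curves to the dose responses. The single-agent IC50 comes from these fits.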

[2] = compound: CC(=O)Nc1cccc(-n2c(=O)n(C3CC3)c(=O)c3c(Nc4ccc(I)cc4F)n(C)c(=O)c(C)c32)c1 [Trametinib]; settings: max 1 µM
Method in brief: as §1

[3] = compound: Cc1cc2ncnn2cc1Nc1ncc2c(n1)n(C1CCOCC1)c(=O)n2C [AZD7648]; settings: max 10 µM
Method in brief: as §1

[4] = compound: O=c1[nH]cc(F)c(=O)[nH]1 [5-Fluorouracil]; settings: max 20 µM
Method in brief: as §1

[5] = compound: Nc1ccn([C@@H]2O[C@H](CO)[C@@H](O)C2(F)F)c(=O)n1 [Gemcitabine]; settings: max 0.3 µM
Method in brief: as §1

[6] = compound: COc1cc([C@@H]2c3cc4c(cc3[C@@H](O[C@@H]3O[C@@H]5CO[C@@H](C)O[C@H]5[C@H](O)[C@H]3O)[C@H]3COC(=O)[C@H]23)OCO4)cc(OC)c1O [Etoposide]; settings: max 10 µM
Method in brief: as §1

[7] = compound: C1CN(CCC1(C(=O)N[C@@H](CCO)C2=CC=C(C=C2)Cl)N)C3=NC=NC4=C3C=CN4 [AZD5363]; settings: max 10 µM
Method in brief: as §1

[8] = compound: Cc1nc(-c2cn3c(n2)-c2ccc(-c4cnn(C(C)(C)C(N)=O)c4)cc2OCC3)n(C(C)C)n1 [Taselisib]; settings: max 10 µM
Method in brief: as §1

[9] = compound: CC(=O)c1c(C)c2cnc(Nc3ccc(N4CCNCC4)cn3)nc2n(C2CCCC2)c1=O [Palbociclib]; settings: max 10 µM
Method in brief: as §1

[10] = compound: CCc1c2c(nc3ccc(O)cc13)-c1cc3c(c(=O)n1C2)COC(=O)[C@]3(O)CC [SN-38]; settings: max 0.3 µM
Method in brief: as §1

[11] = compound: CC1=CN2[C@@H](C1)C=NC3=CC(=C(C=C3C2=O)OC)OCCCCCOC4=C(C=C5C(=C4)N=C[C@@H]6CC(=CN6C5=O)C)OC [SG3199]; settings: max 0.001 µM
Method in brief: as §1

[12] = compound: COc1cc2ncnc(Nc3ccc(F)c(Cl)c3)c2cc1OCCCN1CCOCC1 [Gefitinib]; settings: max 10 µM
Method in brief: as §1

[13] = compound: C[C@@H](Nc1cc(F)cc(F)c1)c1cc(C(=O)N(C)C)cc2c(=O)cc(N3CCOCC3)oc12 [AZD8186]; settings: max 10 µM
Method in brief: as §1

[14] = compound: CC1=C(C(=CC=C1)Cl)NC(=O)C2=CN=C(S2)NC3=CC(=NC(=N3)C)N4CCN(CC4)CCO [Dasatinib]; settings: max 2 µM
Method in brief: as §1

[15] = compound: COc1cccc2c1C(=O)c1c(O)c3c(c(O)c1C2=O)C[C@@](O)(C(=O)CO)C[C@@H]3O[C@H]1C[C@H](N)[C@H](O)[C@H](C)O1 [Doxorubicin]; settings: max 1 µM
Method in brief: as §1

[16] = compound: N#Cc1cnc(Nc2cc(NC[C@H]3CNCCO3)c(C(F)(F)F)cn2)cn1 [SRA737]; settings: max 10 µM
Method in brief: as §1

[17] = compound: Cc1c2c(nn1C)CSCc1cc(n(C)n1)CSc1cc(c3ccccc3c1)OCCCc1c(C(=O)O)n(C)c3c-2c(Cl)ccc13 [AZD5991]; settings: max 1 µM
Method in brief: as §1

[18] = compound: C[C@@H](Oc1cc(-c2cnn(C3CCNCC3)c2)cnc1N)c1c(Cl)ccc(F)c1Cl [Crizotinib]; settings: max 10 µM
Method in brief: as §1

[19] = compound: NC1(c2ccc(-c3nc4ccn5c(=O)[nH]nc5c4cc3-c3ccccc3)cc2)CCC1 [MK-2206]; settings: max 10 µM
Method in brief: as §1

[20] = compound: CCN(CCO)CCCOc1ccc2c(Nc3cc(CC(=O)Nc4cccc(F)c4)[nH]n3)ncnc2c1 [AZD2811]; settings: max 1 µM
Method in brief: as §1

[21] = compound: COc1nnc2ccc(N3CCC(c4ccc(OCCN5CCN(C)C(=O)[C@H]5C)cc4)CC3)nn12 [AZD5153]; settings: max 1 µM
Method in brief: as §1

[22] = compound: C[C@@H]1COCCN1C2=NC(=NC(=C2)C3(CC3)[S@](=N)(=O)C)C4=C5C=CNC5=NC=C4 [AZD6738]; settings: max 10 µM
Method in brief: as §1

[23] = compound: O=C(Nc1ccc2[nH]nc(-c3ccncc3)c2c1)[C@@H]1CCN(CC(=O)N2CCN(c3ccc(-c4ncccn4)cc3)CC2)C1; settings: max 5 µM
Method in brief: as §1

[24] = compound: CC(C)n1c(=O)n(C)c2cnc3cc(F)c(-c4ccc(OCCCN5CCCCC5)nc4)cc3c21 [AZD1390]; settings: max 0.3 µM
Method in brief: as §1

[25] = compound: CN(CC[C@H](CSC1=CC=CC=C1)NC2=C(C=C(C=C2)S(=O)(=O)NC(=O)C3=CC=C(C=C3)N4CCC(CC4)[C@H](C5=CC=CC=C5C6=CC=C(C=C6)Cl)O)S(=O)(=O)C(F)(F)F)CCO [AZD4320]; settings: max 1 µM
Method in brief: as §1

[26] = compound: CS(=O)(=O)CCNCc1ccc(-c2ccc3ncnc(Nc4ccc(OCc5cccc(F)c5)c(Cl)c4)c3c2)o1 [Lapatinib]; settings: max 10 µM
Method in brief: as §1

[27] = compound: C[C@@H](c1ccc2nccn2c1)n1nnc2ncc(-c3cnn(C)c3)nc21 [Savolitinib]; settings: max 1 µM
Method in brief: as §1

[28] = compound: CN(C)CCCOc1ccc(-c2ccc3ncc4c(c3c2)n(C2CCOCC2)c(=O)n4C)cn1 [AZD0156]; settings: max 3 µM
Method in brief: as §1

[29] = compound: O=C(c1cc(Cc2n[nH]c(=O)c3ccccc23)ccc1F)N1CCN(C(=O)C2CC2)CC1 [Olaparib]; settings: max 10 µM
Method in brief: as §1

[30] = compound: C1CC(C1)(C(=O)[O-])C(=O)[O-].N.N.[Pt+2] [Carboplatin]; settings: max 10 µM
Method in brief: as §1

[31] = compound: COc1cc(Nc2ncc3c(n2)-c2ccc(Cl)cc2C(c2c(F)cccc2OC)=NC3)ccc1C(=O)O [Alisertib]; settings: max 10 µM
Method in brief: as §1

[32] = compound: CC(=O)O[C@H]1C(=O)[C@@]2(C)[C@H]([C@H](OC(=O)c3ccccc3)[C@]3(O)C[C@H](OC(=O)[C@H](O)[C@@H](NC(=O)c4ccccc4)c4ccccc4)C(C)=C1C3(C)C)[C@]1(OC(C)=O)CO[C@@H]1C[C@@H]2O [Paclitaxel]; settings: max 3 µM
Method in brief: as §1

[33] = compound: CC1(C)CCC(CN2CCN(c3ccc(C(=O)NS(=O)(=O)c4ccc(NCC5CCOCC5)c([N+](=O)[O-])c4)c(Oc4cnc5[nH]ccc5c4)c3)CC2)=C(c2ccc(Cl)cc2)C1 [Venetoclax]; settings: max 1 µM
Method in brief: as §1

[34] = compound: Cn1cnc2c(F)c(Nc3ccc(Br)cc3Cl)c(C(=O)NOCCO)cc21 [Selumetinib]; settings: max 10 µM
Method in brief: as §1

[35] = compound: COc1cccc(OCCCN)c1-c1cc(Nc2cnc(C#N)cn2)n[nH]1 [Prexasertib]; settings: max 1 µM
Method in brief: as §1

Cell Line | IC50, cell viability 72 h [1] [nM] | IC50, cell viability 72 h [2] [nM] | IC50, cell viability 72 h [3] [nM] | IC50, cell viability 72 h [4] [nM] | IC50, cell viability 72 h [5] [nM] | IC50, cell viability 72 h [6] [nM] | IC50, cell viability 72 h [7] [nM] | IC50, cell viability 72 h [8] [nM] | IC50, cell viability 72 h [9] [nM] | IC50, cell viability 72 h [10] [nM] | IC50, cell viability 72 h [11] [nM] | IC50, cell viability 72 h [12] [nM] | IC50, cell viability 72 h [13] [nM] | IC50, cell viability 72 h [14] [nM] | IC50, cell viability 72 h [15] [nM] | IC50, cell viability 72 h [16] [nM] | IC50, cell viability 72 h [17] [nM] | IC50, cell viability 72 h [18] [nM] | IC50, cell viability 72 h [19] [nM] | IC50, cell viability 72 h [20] [nM] | IC50, cell viability 72 h [21] [nM] | IC50, cell viability 72 h [22] [nM] | IC50, cell viability 72 h [23] [nM] | IC50, cell viability 72 h [24] [nM] | IC50, cell viability 72 h [25] [nM] | IC50, cell viability 72 h [26] [nM] | IC50, cell viability 72 h [27] [nM] | IC50, cell viability 72 h [28] [nM] | IC50, cell viability 72 h [29] [nM] | IC50, cell viability 72 h [30] [nM] | IC50, cell viability 72 h [31] [nM] | IC50, cell viability 72 h [32] [nM] | IC50, cell viability 72 h [33] [nM] | IC50, cell viability 72 h [34] [nM] | IC50, cell viability 72 h [35] [nM]
DB (B-Cell Non-Hodgkin's Lymphoma) | 526 | > 1000 | > 10000 | > 20000 | 8.96 | 3690 | > 10000 | > 10000 | 7680 | 4.52 | > 1 | > 10000 | > 10000 | > 2000 | 251 | > 10000 | 109 | 7970 | > 10000 | 537 | 210 | > 10000 | > 5000 | > 300 | 143 | > 10000 | > 1000 | > 3000 | > 10000 | > 10000 | 3880 | 5.71 | 119 | > 10000 | 210
DOV13 (Ovarian Carcinoma) | 1110 | > 1000 | > 10000 | > 20000 | 11.8 | 2730 | > 10000 | 4650 | 2020 | 9.35 | > 1 | > 10000 | > 10000 | 165 | 308 | > 10000 | > 1000 | 7020 | > 10000 | 980 | 650 | 2130 | > 5000 | > 300 | 464 | > 10000 | > 1000 | > 3000 | > 10000 | > 10000 | 1930 | 31.7 | > 1000 | > 10000 | 40.7
DSH1 (Bladder Carcinoma) | 1920 | 615 | > 10000 | > 20000 | 6.55 | 7620 | > 10000 | 2240 | > 10000 | 26.8 | > 1 | 792 | > 10000 | > 2000 | 306 | > 10000 | 914 | > 10000 | > 10000 | > 1000 | 242 | 4620 | 2060 | > 300 | > 1000 | 457 | > 1000 | > 3000 | > 10000 | > 10000 | > 10000 | 146 | > 1000 | > 10000 | 153
ES7 (Ewing's Sarcoma) | 1070 | > 1000 | > 10000 | 12300 | 6.44 | 257 | > 10000 | 3020 | 3870 | 1.13 | > 1 | > 10000 | 2000 | > 2000 | 38.8 | 7440 | 861 | 3360 | 7750 | 25.4 | 289 | 2440 | > 5000 | > 300 | 204 | > 10000 | > 1000 | > 3000 | 3820 | > 10000 | 249 | 3.3 | > 1000 | > 10000 | 33
G-292-Clone-A141B1 (Osteosarcoma) | > 3000 | > 1000 | > 10000 | > 20000 | > 300 | > 10000 | > 10000 | 1160 | > 10000 | > 300 | > 1 | > 10000 | > 10000 | > 2000 | > 1000 | > 10000 | > 1000 | > 10000 | > 10000 | > 1000 | > 1000 | > 10000 | > 5000 | > 300 | > 1000 | > 10000 | > 1000 | > 3000 | > 10000 | > 10000 | > 10000 | > 3000 | > 1000 | > 10000 | > 1000
